Experimental data reported in ChEMBL document CHEMBL3085729, “Total synthesis of schizocommunin and revision of its structure” (J Nat Prod, 2013).

Columns and labels:
A549 = assay: Antiproliferative activity against human A549 cells after 48 hrs; format: functional, cell-based; details: A549, 48 h
HeLa = assay: Antiproliferative activity against human HeLa cells after 48 hrs; format: functional, cell-based

Row | IC50 (A549) | IC50 (HeLa) | SMILES
1 | > 100 µM | > 100 µM | O=C1Nc2ccccc2/C1=C\c1n[nH]c2ccccc2c1=O
2 | > 100 µM | 15.2 µM | O=C1Nc2ccccc2/C1=C/c1nc2ccccc2c(=O)[nH]1

Continued, compound first:

Row | SMILES | IC50 (A549) | IC50 (HeLa)
3 | O=C1Nc2ccccc2/C1=C\c1nnc2ccccc2c1Cl | 93.3 µM | 7.8 µM
4 | CC(=O)N1C(=O)/C(=C/c2nnc3ccccc3c2Cl)c2ccccc21 | > 100 µM | 28.8 µM
5 | COc1c(/C=C2/C(=O)Nc3ccccc32)nnc2ccccc12 | > 100 µM | 19.6 µM
